Measurements reported in patent publication US10550118B2, “JAK inhibitors containing a 4-membered heterocyclic amide” (THERAVANCE BIOPHARMA R&D IP, LLC, priority 2017, dated 2020).

Tested on: IFNγ induced CXCL10 and CXCL9 secretion in EpiAirway tissue cultures
Assay: Inhibition of IFNγ induced chemokines CXCL9 and CXCL10 in human 3D airway cultures
Type: cell-based
Conditions: 192 h, day 8, ±STDV
Experimental: Assay 7: Inhibition of IFNγ and IL-27 Induced Chemokines CXCL9 and CXCL10 in Human 3D Airway Cultures
EpiAirway tissue cultures were obtained from Mattek (AIR-100). Cultures were derived from asthmatic donors. In a cell culture insert, human derived tracheal/bronchial epithelial cells were grown and differentiated on a porous membrane support, allowing an air-liquid interface with warmed culture medium below the cells and a gaseous test atmosphere above. Tissues were cultured in maintenance media (Mattek, AIR-100-MM) in a 37° C., 5% CO2 humidified incubator. Four donors were tested. On Day 0, tissue cultures were treated with test compounds at 10 μM, 1 μM and/or 0.1 μM. Compounds were diluted in dimethyl sulfoxide (DMSO, Sigma) to a final concentration of 0.1%. DMSO at 0.1% was used as a vehicle control. Test compounds were incubated with cultures for 1 hour at 37° C., 5% CO2, followed by the addition of pre-warmed media containing IFNγ (R&D Systems) or IL-27 (R&D Systems) at a final concentration at 100 ng/ml. Tissue cultures were maintained for 8 days. Media was replaced every 2 days with fresh media containing compounds and IFNγ or IL-27. […] Data is expressed as % Inhibition+/−standard deviation (±STDV). Percent inhibition was determined by compound inhibitory potency against IFNγ or IL-27 induced CXCL10 or CXCL9 secretion compared to vehicle treated cells. […]

## CCc1cc(O)c(F)cc1-c1ccc2c(-c3nc4c([nH]3)CN(C(C)C)[C@H](C(=O)N3CC(N(C)C)C3)C4)n[nH]c2c1 [Example 2, (S)-(3-(dimethylamino)azetidin-1-yl)(2-(6-(2-ethyl-5-fluoro-4-hydroxyphenyl)-1H-indazol-3-yl)-5-isopropyl-4,5,6,7-tetrahydro-3H-imidazo[4,5-c]pyridin-6-yl)methanone]
  inhibition at 1 µM: 65%
